Laboratory results from a melting point compilation (Tetko et al.; mined from patent text by program, amines drawn as free bases though some values may be those of a salt).

Row | melting point | Structure (SMILES)
1 | 186 to 187 °C | O=C(Nc1ccc(CN2CCOCC2)cc1)C1=Cc2cc(-c3ccccc3)ccc2CC1
2 | 139 °C | CC(C)c1ccc(S(=O)(=O)n2c(Cc3ccc(C(=O)O)c(O)c3)cc3cc(Cl)ccc32)cc1
3 | > 300 °C | COc1ccc(-c2[nH]nc3c2C(=O)c2c(NC(=O)CN)cccc2-3)cc1
4 | 171 to 172 °C | Cc1c(NC(=O)CC(C)(C)C)c(C)c2c(C)coc2c1Cc1ccc(C(C)C)cc1
5 | 274 to 277 °C | O=S(=O)(Nc1ccccc1)c1ccc(-c2cnn3c(O)ncnc23)cc1
6 | 263 to 265 °C | Nc1ncc(CN2CCN(c3ccccc3)CC2)c(N)n1
7 | 176 to 179 °C | Nc1c(NCc2ccccc2)ccnc1Cl
8 | 135 °C | O=C(O)[C@@H]1OC(c2ccccc2)=N[C@H]1c1ccccc1
9 | 145 to 147 °C | Cc1nc(NC(=O)c2ccccc2)cn1CCCCC1(C(=O)NCC(F)(F)F)c2ccccc2-c2ccccc21
10 | 179 to 180 °C | CNC(=NC#N)NCCCCSc1nccc(NC(N)=NCC(F)(F)F)n1
11 | 77 to 78 °C | Cn1nc(-c2ncc(Cl)cc2F)c(I)c1OC(F)F
12 | 159 to 160 °C | NC(=O)N(O)CCNC(=O)c1cccc(Oc2ccccn2)c1
13 | 74 °C | Cc1cc(C)cc(OCC(=O)c2ccccc2Br)c1
14 | 85 to 87 °C | CCCc1c(OCCCSc2nc3ccc(C(=O)O)cc3[nH]2)ccc(C(C)=O)c1OC(C)=O
15 | 144 to 145 °C | COC(=O)c1ccccc1C(=O)n1nc(O)ccc1=O
16 | 169 to 171 °C | CN(C)C=NS(=O)(=O)c1cc2ccncc2s1
17 | 91 °C | CC(C)CCNCCOc1ccc2ccccc2c1
18 | 115 to 121 °C | C[C@H](O)[C@@H](COc1ccc(Cl)c(Cl)c1)n1cnc(C(N)=O)c1
19 | 71 to 73 °C | Brc1cc(-c2ccccc2)on1
20 | 78 to 81 °C | CC(c1ccc(OCCO)cc1)(c1ccc(OCCO)cc1)c1ccc(OCCO)cc1
21 | 186 °C | Cc1c(C(=O)Nc2ccc(N3CCC(CCO)CC3)c(C#N)c2)cnn1-c1ccc(F)cc1
22 | 72 to 73 °C | CNS(=O)(=O)Cc1ccc2[nH]cc(CCN=CNc3ccccc3)c2c1
23 | 63 to 64 °C | CC(C)(C)[Si](C)(C)OCCn1nc(C=O)cc1C=O
24 | 165 to 168 °C | Cc1csc2nccn12

Row | melting point | Structure (SMILES)
25 | 82 to 85 °C | CCOC(=O)c1c(C)nc2c(cnn2CCOC)c1N
26 | 68 to 70 °C | Nc1ccncc1Nc1cccc2cc[nH]c12
27 | 102 °C | Oc1cccc(SCCCSc2ccc(Cl)cc2)c1
28 | 222 to 224 °C | CSc1nc(N)c2ncn(C3CCCCC3)c2n1
29 | 57 to 58 °C | COC(=O)CCC(CCCCNS(=O)(=O)c1ccc(Cl)cc1)CCOc1cccnc1 (centres undefined)
30 | 74 to 76 °C | CCOC(=O)C(=CNC1CC1)C(=O)c1cc(F)c(F)c(Br)c1F
31 | 56 to 58 °C | CCCCCCC/C=C/C(=O)NCCN1CCCC1
32 | 69 to 76 °C | COC(=O)CCC(CNC(=O)C(C)(Cc1c[nH]c2ccccc12)NC(=O)OC1C2CC3CC(C2)CC1C3)c1ccccc1 (centres undefined)
33 | 120 to 122 °C | CCCCCCN(CCC12CC3CC(CC(C3)C1)C2)C(=O)NCCCc1ccncc1
34 | 39 to 41 °C | O=[N+]([O-])c1cc(CO)c(Cl)cc1F
35 | 125 to 127 °C | CC(O)Cn1nc2c3c(cc(N)cc31)CCC2 (centres undefined)
36 | 169 to 172 °C | CC(C)c1cccc(C(C)C)c1NC(=O)N(C(C)C)C1COc2ccccc2C1 (centres undefined)
37 | 84.9 °C | CC#CCOc1cc(OCc2cccc(F)c2F)ncn1
38 | 69 °C | O=C1c2ccccc2CCC1c1ccccc1 (centres undefined)
39 | 131 to 132 °C | CCOC(=O)Cc1[nH]c(C(=O)OC(C)(C)C)c(CCc2cccc(Cl)c2)c1C(=O)OCC
40 | 130 to 132 °C | N#Cc1cn(-c2c(Cl)cc(C(F)(F)F)cc2Cl)c(N)c1I
41 | 200 to 201 °C | Nc1c(Cl)cnc(OCC(=O)O)c1Cl
42 | 193 to 195 °C | CC(=O)N(O)C(C)c1cccc(Nc2ccccc2C(=O)NN)c1Cl (centres undefined)
43 | 60 to 62 °C | COc1nc(C)c(C)cc1NC(=S)N1CCN(c2cc(F)cc(F)c2)CC1
44 | 118 °C | C[C@@H]1CCN(C(=O)OC(C)(C)C)C[C@@H]1N(C)C(=O)OC(C)(C)C
45 | 155 to 156 °C | c1nc2cc3c(cc2[nH]1)OCO3
46 | 127 to 128 °C | O=c1cccnn1-c1ccc2nc([C@H]3C[C@H](N4CCCCC4)C3)sc2c1
47 | 89 °C | CCCCCCNC(=O)Oc1ccc2ncccc2c1
48 | 188 to 193 °C | CC(=O)OCc1c(-c2cc(Nc3cc4n(n3)CCN(C)C4)c(=O)n(C)n2)cccc1-n1ncc2cc(C(C)(C)C)cc(F)c2c1=O

Row | melting point | Structure (SMILES)
49 | 227 to 229 °C | COCc1ccc(-c2ccc3c(c2)C=C(C(=O)Nc2ccc(CN(C)C4CCOCC4)cc2)CCS3(=O)=O)cc1
50 | 166 to 167 °C | CC(=O)Nc1ccc(C=C(C(=O)C2CC2)C(=O)C2CC2)cc1
51 | 83 to 85 °C | CCCCCCCCCCCCCCCCN(C(=O)c1ccc(Cl)c([N+](=O)[O-])c1)c1ccccc1[N+](=O)[O-]
52 | 71 to 75 °C | CCCCCC(O)CCC1CCC(=O)C1CCCCC=CC(=O)O (centres undefined)
53 | 117 to 121 °C | CCn1c(CO)nc2cccnc21
54 | 220 to 223 °C | Cc1cc(C)c2[nH]c(C(=O)NC(N)=S)cc2c1
55 | 72.5 to 73 °C | CCCCCCCCC(=O)Nc1cc([N+](=O)[O-])cc([N+](=O)[O-])c1
56 | 168 to 170 °C | CCCCc1ncc(CC(=O)N[C@@H](Cc2ccccc2)C(=O)O)n1Cc1ccccc1Cl
57 | 212 to 213 °C | CCCCCCC(=O)Nc1c(Sc2cc(C)cc(C)c2)c(C)c[nH]c1=O
58 | 77 to 80 °C | CC(NC(=O)C1CCCN1C(=O)CNP(=O)(Cc1ccccc1)Cc1ccccc1)C(=O)OCc1ccccc1 (centres undefined)
59 | 204 to 206 °C | CCOc1cc([N+](=O)[O-])ccc1N1C(=O)c2ccccc2C1=O
60 | 149 to 150 °C | COc1ccccc1OCC1NC(C(=O)O)CS1 (centres undefined)
61 | 114 to 115 °C | CCS(=O)CC(=O)Nc1c(C)cccc1C (centres undefined)
62 | 118 to 119 °C | COc1ccc(CN2C(=O)CC(C)(C)c3cc(Br)ccc32)cc1
63 | 210 to 212 °C | CCn1c(=O)ccc2cnc(Nc3cccc(F)c3)nc21
64 | 145 to 146 °C | COc1cccc(-c2ccc3cc(OC)ccc3c2Oc2ccc(C=O)cc2)c1
65 | 167 to 170 °C | CC1(C)Oc2ccc(C#N)cc2C(C(=O)Nc2ccccc2)=C1O
66 | 204 to 205 °C | Cc1oc(-c2ccccc2)nc1CCOc1ccc(C=CC=C2OC(=O)NC2=O)cn1
67 | 269 to 270 °C | Fc1cc2c(Nc3ccc(F)c(Br)c3)ncnc2cn1
68 | 108 to 110 °C | N#Cc1ccc2c(c1)Sc1ccccc1C=C2
69 | 143 to 146 °C | CCOC(=O)c1cc(N)c(N)nc1C(=O)OCC
70 | 56.9 °C | Oc1ccc(C=C2C3=CC=CCC3=CCc3ccccc32)cc1

Row | Structure (SMILES) | melting point
71 | O=C1NC(=S)NC(=O)C1=Cc1cccc2ccccc12 | 280 °C
72 | COc1ccc2c(c1O)C13CCN(C)C(C2)C1C=C(C)C(=O)C3 (centres undefined) | 183 to 185 °C
73 | COC12CC(CN3CCC(c4c[nH]c5ccccc45)CC3)CN(C)C1Cc1c(Br)[nH]c3cccc2c13 (centres undefined) | 160 to 170 °C
74 | CC(C)Cc1ccc(CCc2cc3c(s2)NC(=O)C(c2ccccc2)N=C3c2ccccc2Cl)cc1 (centres undefined) | 201 to 203 °C
